The text below walks through data of US20240401154A1, “SYNTHESIS AND PREPARATION OF ULTRA-LOW VISCOSITY AND HIGH MAGNETIC SUSCEPTIBILITY MAGNETIC IONIC LIQUIDS” (priority 2023, published 2024).

A short description of data set [1]: Magnetic properties by SQUID magnetometer. It counts as physicochemical. The following applies: applied magnetic field H=20 kOe; Curie-Weiss fit. Here is the method: Magnetic properties were analyzed using a magnetic susceptibility balance (MSB, Sherwood Scientific, Cambridge, UK) and a Quantum Design Superconducting Quantum Interference Device (SQUID) magnetometer (MPMS XL-7). The magnetic properties of transition metal MILs were further studied using a SQUID magnetometer to confirm their paramagnetic nature as well as if any magnetic transition occurs in the samples.
The magnetic properties of transition metal MILs were further studied using a SQUID magnetometer to confirm their paramagnetic nature as well as if any magnetic transition occurs in the samples.
The calculated μeff of 5.21μB for the [Ni(C6-DGE)6][Ni(hfacac)3]2 MIL (FIG. 12A) from SQUID matches quite well with the theoretical μtheo value (5.31μB, TABLE 1) and also with that obtained from MSB measurements (5.48μB).

The conditions of data set [2]: SQUID magnetometer; previously studied MILs, Table 2; cited from earlier work.
For data set [3] the following is noted: previously studied MILs, Table 2, cited from earlier work.
For data set [4] the following is noted: GC-FID; previously referenced MILs; cited from earlier work.
The conditions of data set [5]: previously referenced MILs, cited from earlier work.
The mark [6] stands for this setting: acetone, chloroform, dichloromethane, acetonitrile, methanol, ethanol, diethyl ether, ethyl acetate, isopropanol at 20% (w/v).
[7] abbreviates: hexane, heptane, benzene, toluene at 10% (w/v).

Read-outs that look alike come from different tables or passages of the source. Marks after values point to notes of the source that are not given here.

Regarding `CCCCCCOC(=O)COCC(=O)OCCCCCC.CCCCCCOC(=O)COCC(=O)OCCCCCC.CCCCCCOC(=O)COCC(=O)OCCCCCC.CCCCCCOC(=O)COCC(=O)OCCCCCC.CCCCCCOC(=O)COCC(=O)OCCCCCC.CCCCCCOC(=O)COCC(=O)OCCCCCC.O=C(C=C([O-])C(F)(F)F)C(F)(F)F.O=C(C=C([O-])C(F)(F)F)C(F)(F)F.O=C(C=C([O-])C(F)(F)F)C(F)(F)F.O=C(C=C([O-])C(F)(F)F)C(F)(F)F.O=C(C=C([O-])C(F)(F)F)C(F)(F)F.O=C(C=C([O-])C(F)(F)F)C(F)(F)F.[Ni+2].[Ni+2].[Ni+2]` [MIL 2], the “μeff from SQUID” value in data set [1] is given as 5.21 μB.

Consider `CCCCCCOC(=O)COCC(=O)OCCCCCC.CCCCCCOC(=O)COCC(=O)OCCCCCC.CCCCCCOC(=O)COCC(=O)OCCCCCC.CCCCCCOC(=O)COCC(=O)OCCCCCC.CCCCCCOC(=O)COCC(=O)OCCCCCC.CCCCCCOC(=O)COCC(=O)OCCCCCC.O=C(C=C([O-])C(F)(F)F)C(F)(F)F.O=C(C=C([O-])C(F)(F)F)C(F)(F)F.O=C(C=C([O-])C(F)(F)F)C(F)(F)F.O=C(C=C([O-])C(F)(F)F)C(F)(F)F.O=C(C=C([O-])C(F)(F)F)C(F)(F)F.O=C(C=C([O-])C(F)(F)F)C(F)(F)F.[Mn+2].[Mn+2].[Mn+2]` [MIL 3], for which, in data set [1], the “μeff from SQUID” value came out at 8.31 μB.

Turning to `CCCCCCCCN(CCCCCCCC)C(=O)COCC(=O)N(CCCCCCCC)CCCCCCCC.CCCCCCCCN(CCCCCCCC)C(=O)COCC(=O)N(CCCCCCCC)CCCCCCCC.CCCCCCCCN(CCCCCCCC)C(=O)COCC(=O)N(CCCCCCCC)CCCCCCCC.O=C(C=C([O-])C(F)(F)F)C(F)(F)F.O=C(C=C([O-])C(F)(F)F)C(F)(F)F.O=C(C=C([O-])C(F)(F)F)C(F)(F)F.O=C(C=C([O-])C(F)(F)F)C(F)(F)F.O=C(C=C([O-])C(F)(F)F)C(F)(F)F.O=C(C=C([O-])C(F)(F)F)C(F)(F)F.O=C(C=C([O-])C(F)(F)F)C(F)(F)F.O=C(C=C([O-])C(F)(F)F)C(F)(F)F.O=C(C=C([O-])C(F)(F)F)C(F)(F)F.O=C(C=C([O-])C(F)(F)F)C(F)(F)F.O=C(C=C([O-])C(F)(F)F)C(F)(F)F.O=C(C=C([O-])C(F)(F)F)C(F)(F)F.[Ho+3].[Ho+3].[Ho+3].[Ho+3]` [[Ho(TODGA)3][Ho(hfacac)4]3], in data set [2], the Effective magnetic moment was 20.86^f. Moreover, the Viscosity in data set [3] (reported at 19.9° C.) is listed as 10,530^e. Moreover, the “Onset of MIL volatilization (° C.)^1” value in data set [4] was 192 °C. The Solubility entry is “S^b (soluble in acetone, chloroform, dichloromethane, acetonitrile, methanol, ethanol, diethyl ether, ethyl acetate, and isopropanol at 20% (w/v).)” in data set [5] (setting [6]); “S^a (soluble in hexane, heptane, benzene, and toluene at 10% (w/v).)” in data set [5] (setting [7]); “S^c (soluble in hexane, heptane, benzene, and toluene at 20% (w/v).)” in data set [5] (hexane, heptane, benzene, toluene at 20% (w/v)); “S^f (insoluble in water at 0.01% (w/v).)” in data set [5] (water at 0.01% (w/v)).

Take `CCCCCCCCN(CCCCCCCC)C(=O)COCC(=O)N(CCCCCCCC)CCCCCCCC.CCCCCCCCN(CCCCCCCC)C(=O)COCC(=O)N(CCCCCCCC)CCCCCCCC.O=C(C=C([O-])C(F)(F)F)C(F)(F)F.O=C(C=C([O-])C(F)(F)F)C(F)(F)F.O=C(C=C([O-])C(F)(F)F)C(F)(F)F.O=C(C=C([O-])C(F)(F)F)C(F)(F)F.O=C(C=C([O-])C(F)(F)F)C(F)(F)F.O=C(C=C([O-])C(F)(F)F)C(F)(F)F.[Ni+2].[Ni+2].[Ni+2]` [[Ni(TODGA)2][Ni(hfacac)3]2]: the Effective magnetic moment in data set [2] was 11.79^f. Moreover, the Viscosity in data set [3] (reported at 19.9° C.) is 33,830^e. For the same compound, the “Onset of MIL volatilization (° C.)^1” value in data set [4] is 235 °C. Besides, the Solubility entry was “S^b (soluble in acetone, chloroform, dichloromethane, acetonitrile, methanol, ethanol, diethyl ether, ethyl acetate, and isopropanol at 20% (w/v).)” in data set [5] (setting [6]); “S^a (soluble in hexane, heptane, benzene, and toluene at 10% (w/v).)” in data set [5] (setting [7]); “S^f (insoluble in water at 0.01% (w/v).)” in data set [5] (water at 0.01% (w/v)).

Consider `CCCCCCCCCCCCCC[P+](CCCCCC)(CCCCCC)CCCCCC.O=C(C=C([O-])C(F)(F)F)C(F)(F)F.O=C(C=C([O-])C(F)(F)F)C(F)(F)F.O=C(C=C([O-])C(F)(F)F)C(F)(F)F.[Co+2]` [[P66614][Co(hfacac)3]], for which the Effective magnetic moment in data set [2] is 4.30^f. For the same compound, in data set [3] (reported at 23.7° C.), the Viscosity is 575.8^c. Also, the “Onset of MIL volatilization (° C.)^1” value in data set [4] was 130 °C. Also, the Solubility result in data set [5] (setting [6]) was “S^b (soluble in acetone, chloroform, dichloromethane, acetonitrile, methanol, ethanol, diethyl ether, ethyl acetate, and isopropanol at 20% (w/v).)”; in data set [5] (setting [7]), “S^a (soluble in hexane, heptane, benzene, and toluene at 10% (w/v).)”; in data set [5] (water at 0.01% (w/v)), “S^f (insoluble in water at 0.01% (w/v).)”.

Regarding `CCCCCCCCCCCCCC[P+](CCCCCC)(CCCCCC)CCCCCC.O=C(C=C([O-])C(F)(F)F)C(F)(F)F.O=C(C=C([O-])C(F)(F)F)C(F)(F)F.O=C(C=C([O-])C(F)(F)F)C(F)(F)F.[Mn+2]` [[P66614][Mn(hfacac)3]], the Effective magnetic moment in data set [2] is on record as 5.80^f. Besides, the Viscosity in data set [3] (reported at 23.7° C.) is on record as 401.8^c. In data set [4], the “Onset of MIL volatilization (° C.)^1” value is 155 °C. Moreover, the Solubility entry in data set [5] (setting [6]) was “S^b (soluble in acetone, chloroform, dichloromethane, acetonitrile, methanol, ethanol, diethyl ether, ethyl acetate, and isopropanol at 20% (w/v).)”; in data set [5] (setting [7]), “S^a (soluble in hexane, heptane, benzene, and toluene at 10% (w/v).)”; in data set [5] (water at 0.01% (w/v)), “S^f (insoluble in water at 0.01% (w/v).)”.

With `CCCCCCCCCCCCCC[P+](CCCCCC)(CCCCCC)CCCCCC.O=C(C=C([O-])C(F)(F)F)C(F)(F)F.O=C(C=C([O-])C(F)(F)F)C(F)(F)F.O=C(C=C([O-])C(F)(F)F)C(F)(F)F.[Ni+2]` [[P66614][Ni(hfacac)3]], in data set [2], the Effective magnetic moment was 2.80^f. Further, the Viscosity in data set [3] (reported at 23.7° C.) was 927.9^c. Moreover, the “Onset of MIL volatilization (° C.)^1” value in data set [4] was 225 °C. Besides, the Solubility entry is “S^b (soluble in acetone, chloroform, dichloromethane, acetonitrile, methanol, ethanol, diethyl ether, ethyl acetate, and isopropanol at 20% (w/v).)” in data set [5] (setting [6]); “S^a (soluble in hexane, heptane, benzene, and toluene at 10% (w/v).)” in data set [5] (setting [7]); “S^f (insoluble in water at 0.01% (w/v).)” in data set [5] (water at 0.01% (w/v)).
